According to patent publication US5747521A (priority 1992, dated 1998):
Where two headings read alike, the source gives them in different places.

Legend:
in vivo [1] = conditions: mouse
[2] = test system: number of stretchings (anti-writhing); assay: Analgesic activity test (anti-writhing method by Whittle); format: in vivo, male ICR-mice; conditions: for ED50: Mus musculus, 1 h, read-out: ED50 Oral administration; for analgesic activity / analgesic action: conclusion in words from Table 3
Method: After the lapse of 60 minutes, the number of stretchings in the course of 10 minutes was measured as an index to a algesic sense.

in vivo [3] = assay: in vivo; parameters: species or system male SD-rats; conditions: rat, po
Method: A solution of a drug was administered through the mouths of a group of 8 mature male SD-rats (weight 130±20 g) performing a fast for 24 hours. […] Capacity which causes 50% bleeding (UD50) was calculated according to the Ritchfield and Wilcoxon method (J. Pahrmacol., 69, 99, 1949) with bleeding more than 1 mm in diameter as positivity.

[4] = test system: carrageenan induced hind-paw edema; assay: Anti-inflammatory activity test (carrageenan induced hind-paw edema method, Winter); format: in vivo, male rats; conditions: for A rate of inhibition: 100 mg/kg p.o., 1% carrageenan one hour after dosing, edema measured 3 hours and 5 hours thereafter, significance (p.v.) 0.01; for edema inhibition effect / anti-inflammatory action: conclusion in words from Table 2
Method: The volume of legs was measured before a solution of a drug was administered to a group of 8 mature male rats (weight 170±20 g) and 0.1 ml /rat of 1% carrageenan physiological saline solution was injected subcutaneously into the sole of hind of leg of rats one hour after the oral administration and edema thereby caused was measured 3 hours and 5 hours thereafter. In this way, a rate of edema formation and a rate of inhibition were calculated.

[5] = oral, single dose, fasted mice, mortality up to 72 hours, read-out: LD50 Oral administration
[6] = ip, read-out: LD50 Abdominal administration
[7] = oral, stretchings counted in 10 minutes, 60 minutes after dosing

SMILES | LD50 at 72 h (in vivo [1]; ip, into the abdominal cavity, single dose, fasted mice, mortality up to 72 hours, read-out: LD50 Abdominal administration) [mg/kg] | LD50 at 72 h (in vivo [1]; [5]) [mg/kg] | ED50 ([2]; po) [mg/kg] | TD50 at 4 h (in vivo [3]) [mg/kg] | LD50 at 72 h (in vivo [1]; [6]) [mg/kg] | A rate of inhibition [4] [%] | edema inhibition effect / anti-inflammatory action [4] | ED50 [2, 7] [mg/kg] | analgesic activity / analgesic action [2]
CC1=C(CC(=O)O)c2cc(F)ccc2/C1=C\c1ccc([S+](C)[O-])cc1 (stereo not shown) [Sulindac, reference compound] | 235 | 980 | 60 | 14 | – | – | – | – | –
COc1ccc2c(c1)c(CC(=O)OCC=CCO)c(C)n2C(=O)C=Cc1ccccc1 [Compound 1, 0-(4-hydroxy-2-butene)-N-cinnamoyl-5-methoxy-2-methyl-3-indoleacetate] | – | 2000 | – | 100 | 520 | 57 | almost similar to the widely known cinmetacin | 70 | significant analgesic action
COc1ccc2c(c1)c(CC(=O)OCC1CCCCO1)c(C)n2C(=O)C=Cc1ccccc1 (stereo not shown) [Compound 3, 0-(2-tetrahydropyranilmethyl)-N-cinnamoyl-5-methoxy-2methyl-3-indoleacetate] | – | 6000 | – | 230 | 1150 | 43 | significant anti-inflammatory action | 95 | significant analgesic action
COc1ccc2c(c1)c(CC(=O)OC(C)C(C)O)c(C)n2C(=O)C=Cc1ccccc1 (stereo not shown) [Compound 2, 0-(3-hydroxy-2-buthanyl)-cinnamoyl-5-methoxy-2-methyl-3-indoleacetate] | – | 4200 | – | 175 | 570 | 52 | almost similar to the widely known cinmetacin | 31 | analgesic activity equal to cinmetacin
COc1ccc2c(c1)c(CC(=O)O)c(C)n2C(=O)C=Cc1ccccc1 [Cinmetacin, N-cinnamoyl-2-methyl-5-methoxy-3-indoleacetic acid, reference compound] | – | – | 36 | 18 | – | 65 | – | – | –
